The source of these data is patent US20120178666A1 (SHIRE LLC, priority 2009, published 2012).

The nature of series [1]: Prodrug stability in simulated gastric fluid (USP). As to conditions: 37° C.
Description: (§1) The remaining concentrations of the prodrugs were then assayed by HPLC.
Series [2] in a line: Comparative pharmacokinetic screening study of guanfacine prodrugs in the monkey. The following applies: oral gavage.
Description: Blood samples were taken on 4 sampling occasions at various times up to 6 hours after administration and submitted to analysis for the parent drug and prodrug using a qualified LC-MS-MS assay.
Series [3] in a line: Prodrug stability in simulated intestinal fluid (USP). The following applies: 37° C.
Description: as §1
The nature of series [4]: Comparative bioavailability study of guanfacine in monkeys (full pharmacokinetics). It counts as in vivo, cynomolgus monkey. As to conditions: oral gavage, monkey. On the procedure: The characteristics of the test animals are set out in Table 13.
The following pharmacokinetic parameters derived from the plasma analytical data were determined using Win Nonlin;

Series [5] has as its system gut motility. The series can be described thus: Charcoal propulsion test (gut motility). It is filed as in vivo, rat. As to conditions: Rattus norvegicus, po, read-out: % inhibition of GIT transit compard to vehicle. How it is done: The effect of a drug on gut motility can be studied by means of the charcoal propulsion test.
The method used was based on that described by Takemori et al. (J. Pharmacol. Exp. Ther. 169:39, 1969). Test treatments were administered orally 60 minutes prior to an oral dose of a 10% suspension of charcoal in 2.5% gum Arabic (2 ml/kg). Twenty minutes after dosing with charcoal, the rats were sacrificed and the entire gastrointestinal tract was removed quickly and carefully. The distance that the charcoal meal had travelled toward the caecum was measured and expressed as a percentage of the total gut length.

Take `C[C@@H](N)C(=O)N[C@@H](CCC(=O)NC(=N)NC(=O)Cc1c(Cl)cccc1Cl)C(=O)O` [Compound 41, (R)-Alanine-(S)-γ-Glutamate(Guanfacine) Amide]: in series [1], the “% prodrug remaining following incubation for: 1 h in simulated gastric fluid pH 1.1” value is reported as 70%. Moreover, the “prodrug levels in plasma (in words)” value in series [2] is “detectable prodrug levels in plasma”. The “% prodrug remaining following incubation for: 2 h in simulated intestinal fluid pH 6.8” value in series [3] is 83%.
As for `CC(C)[C@@H](N)C(=O)N[C@@H](CCC(=O)NC(=N)NC(=O)Cc1c(Cl)cccc1Cl)C(=O)O` [Compound 5, guanfacine-γ-(S)-glutamic acid-(R)-valine amide di-trifluoroacetate], in series [1], the “% prodrug remaining following incubation for: 1 h in simulated gastric fluid pH 1.1” value is 86%. Also, the “plasma guanfacine profile (in words)” value in series [4] is given as “sustained guanfacine concentrations”. Also, the inhibition (as a rule, the change of the read-out against control, counted positive when it falls) at 0.1 mg/kg in series [5] (Study 1, oral dose 0.1 mg/kg guanfacine free base equivalents) stood at 6%. Moreover, in series [5] (Study 1, oral dose 0.3 mg/kg guanfacine free base equivalents), the inhibition at 0.3 mg/kg was found to be 22%. Also, in series [5] (Study 1, oral dose 1 mg/kg guanfacine free base equivalents), the inhibition at 1 mg/kg was 48%. Besides, the inhibition at 1.7 mg/kg in series [5] (Study 1, oral dose 1.7 mg/kg guanfacine free base equivalents) is 50%. For the same molecule, in series [5] (Study 1, oral dose 3 mg/kg guanfacine free base equivalents), the inhibition at 3 mg/kg came out at 44%. Besides, the inhibition at 5 mg/kg in series [5] (Study 1, oral dose 5 mg/kg guanfacine free base equivalents) was 42%. For the same molecule, the “% prodrug remaining following incubation for: 2 h in simulated intestinal fluid pH 6.8” value in series [3] is 89%.
Take `CCC(C)[C@@H](N)C(=O)NCCCC(=O)NC(=N)NC(=O)Cc1c(Cl)cccc1Cl` (stereo partly drawn) [Compound 50, Guanfacine (GABA-(R)-Isoleucine) Amide]: the “% prodrug remaining following incubation for: 1 h in simulated gastric fluid pH 1.1” value in series [1] is on record as 85%. For the same molecule, the “% prodrug remaining following incubation for: 2 h in simulated intestinal fluid pH 6.8” value in series [3] is recorded as 81%.
For `N=C(NC(=O)CC[C@H](NC(=O)[C@@H]1CCC(=O)N1)C(=O)O)NC(=O)Cc1c(Cl)cccc1Cl` [Compound 6, (S)-Pyroglutamic acid-(S)-γ-Glutamate (Guanfacine) Amide], in that order: 81% and 98%.
With `N=C(NC(=O)CC[C@H](NC(=O)[C@H](N)Cc1ccc(O)cc1)C(=O)O)NC(=O)Cc1c(Cl)cccc1Cl` [Compound 45, Guanfacine-(S)-γ-Glutamate-(R)-Tyrosine Amide], in series [1], the “% prodrug remaining following incubation for: 1 h in simulated gastric fluid pH 1.1” value is listed as 74%. In addition, the “% prodrug remaining following incubation for: 2 h in simulated intestinal fluid pH 6.8” value in series [3] is on record as 91%.
For `N=C(NC(=O)Cc1c(Cl)cccc1Cl)NC(=O)c1ccc(N)cc1` [Compound 52, Guanfacine PABA Amide], in that order: 84% and 97%.
For `CSCC[C@@H](N)C(=O)N[C@@H](CCC(=O)NC(=N)NC(=O)Cc1c(Cl)cccc1Cl)C(=O)O` [Compound 44, (R)-Methionine-(S)-γ-Glutamate(Guanfacine) Amide] the same measures were 75% and 85%.
`CC(C)[C@@H](N)C(=O)NCCC(=O)NC(=N)NC(=O)Cc1c(Cl)cccc1Cl` [Compound 11, Guanfacine β-Alanine-(R)-Valine Amide]: the “% prodrug remaining following incubation for: 1 h in simulated gastric fluid pH 1.1” value in series [1] was 79%. Also, the “prodrug levels in plasma (in words)” value in series [2] was “detectable prodrug levels in plasma”.
Consider `O=C1CCN=C(NC(=O)Cc2c(Cl)cccc2Cl)N1` [Compound 34, Guanfacine β Alanine Cyclic adduct], for which the “% prodrug remaining following incubation for: 1 h in simulated gastric fluid pH 1.1” value in series [1] is reported as 51%. Also, the “% prodrug remaining following incubation for: 2 h in simulated intestinal fluid pH 6.8” value in series [3] is 91%.
For `CC(C)[C@H](N)C(=O)NCCOC(=O)NC(=N)NC(=O)Cc1c(Cl)cccc1Cl` [Compound 26, Guanfacine ethanolamine-(S)-Valine Carbamate] the same measures were 97% and 91%.
On to `CN(CC(=O)O)C(=O)NC(=N)NC(=O)Cc1c(Cl)cccc1Cl` [Compound 9, Guanfacine Sarcosine Urea], for which the “prodrug levels in plasma (in words)” value in series [2] was “high prodrug levels”.
As for `CC(C)(CO)[C@@H](O)C(=O)NCCCOC(=O)NC(=N)NC(=O)Cc1c(Cl)cccc1Cl` [Compound 69, Guanfacine Panthenol Carbamate], the “% prodrug remaining following incubation for: 1 h in simulated gastric fluid pH 1.1” value in series [1] was 85%. Moreover, the “% prodrug remaining following incubation for: 2 h in simulated intestinal fluid pH 6.8” value in series [3] is given as 96%.
In the case of `N=C(NC(=O)Cc1c(Cl)cccc1Cl)NC(=O)OCC[C@H](NC(=O)CCN)C(=O)O` [Compound 67, β-Alanine-(S)-Homoserine (Guanfacine) Carbamate], the “% prodrug remaining following incubation for: 1 h in simulated gastric fluid pH 1.1” value in series [1] is 99%. For the same molecule, the “% prodrug remaining following incubation for: 2 h in simulated intestinal fluid pH 6.8” value in series [3] is given as 97%.
Consider `CC(C)[C@H](N)C(=O)N[C@@H](COC(=O)NC(=N)NC(=O)Cc1c(Cl)cccc1Cl)C(=O)O` [Compound 17, (S)-Valine-(S)-Serine(Guanfacine) Carbamate], for which the “% prodrug remaining following incubation for: 1 h in simulated gastric fluid pH 1.1” value in series [1] was 93%. The “prodrug levels in plasma (in words)” value in series [2] was “total absence of prodrug in the plasma”. Further, the “% prodrug remaining following incubation for: 2 h in simulated intestinal fluid pH 6.8” value in series [3] is on record as 78%.
As to `NC(=O)CC[C@@H]1N=C(NC(=O)Cc2c(Cl)cccc2Cl)NC1=O` [Compound 38, Guanfacine-(S)-Glutamine Cyclic adduct], the “% prodrug remaining following incubation for: 1 h in simulated gastric fluid pH 1.1” value in series [1] is listed as 70%. Further, the “% prodrug remaining following incubation for: 2 h in simulated intestinal fluid pH 6.8” value in series [3] is 87%.
In the case of `CC(C)[C@H](N)C(=O)N[C@H](CCC(=O)NC(=N)NC(=O)Cc1c(Cl)cccc1Cl)C(=O)O` [Compound 32, (S)-Valine-(R)-γ-Glutamate (Guanfacine) Amide], the “% prodrug remaining following incubation for: 1 h in simulated gastric fluid pH 1.1” value in series [1] was 93%. For the same molecule, in series [3], the “% prodrug remaining following incubation for: 2 h in simulated intestinal fluid pH 6.8” value is 84%.
Regarding `O=C(O)CC1N=C(NC(=O)Cc2c(Cl)cccc2Cl)NC1=O` (centres unmarked) [Compound 4, Guanfacine fumaryl Cyclic adduct], in series [1], the “% prodrug remaining following incubation for: 1 h in simulated gastric fluid pH 1.1” value is 97%. Moreover, the “% prodrug remaining following incubation for: 2 h in simulated intestinal fluid pH 6.8” value in series [3] was 84%.
With `N=C(NC(=O)Cc1c(Cl)cccc1Cl)NC(=O)OC[C@H](NC(=O)CCN)C(=O)O` [Compound 64, β-Alanine-(S)-Serine (Guanfacine) Carbamate], the “% prodrug remaining following incubation for: 1 h in simulated gastric fluid pH 1.1” value in series [1] is on record as 88%. For the same molecule, the “% prodrug remaining following incubation for: 2 h in simulated intestinal fluid pH 6.8” value in series [3] is recorded as 93%.
For `N=C(NC(=O)CC[C@H](NC(=O)[C@H](N)CO)C(=O)O)NC(=O)Cc1c(Cl)cccc1Cl` [Compound 47, (R)-Serine-(S)-γ-Glutamate(Guanfacine) Amide] the same measures were 72% and 89%.
For the molecule `N=C(NC(=O)CC[C@H](NC(=O)[C@H](N)CCC(N)=O)C(=O)O)NC(=O)Cc1c(Cl)cccc1Cl` [Compound 46, (R)-Glutamine-(S)-γ-Glutamate(Guanfacine) Amide], the “% prodrug remaining following incubation for: 1 h in simulated gastric fluid pH 1.1” value in series [1] is 61%. Also, in series [3], the “% prodrug remaining following incubation for: 2 h in simulated intestinal fluid pH 6.8” value was 81%.
For `N=C(NC(=O)Cc1c(Cl)cccc1Cl)NC(=O)OCC[C@H](N)C(=O)O` [Compound 65, (S)-Homoserine Guanfacine Carbamate] the same measures were 90% and 99%.
As for `O=C(O)CC[C@@H]1N=C(NC(=O)Cc2c(Cl)cccc2Cl)NC1=O` [Compound 37, Guanfacine-(S)-Glutamic Cyclic adduct], the “% prodrug remaining following incubation for: 1 h in simulated gastric fluid pH 1.1” value in series [1] is 58%. Moreover, the “prodrug levels in plasma (in words)” value in series [2] was “high prodrug levels”. Further, the “% prodrug remaining following incubation for: 2 h in simulated intestinal fluid pH 6.8” value in series [3] is on record as 110%.
`CC(C)[C@@H](NC(=O)c1ccc(N)cc1)C(=O)NC(=N)NC(=O)Cc1c(Cl)cccc1Cl` [Compound 55, Guanfacine (R)-Valine-PABA Amide]: the “% prodrug remaining following incubation for: 1 h in simulated gastric fluid pH 1.1” value in series [1] is given as 65%. In addition, the “% prodrug remaining following incubation for: 2 h in simulated intestinal fluid pH 6.8” value in series [3] is 91%.
For `CC(C)[C@@H](N)C(=O)N[C@@H](C(=O)NC(=N)NC(=O)Cc1c(Cl)cccc1Cl)C(C)C` [Compound 54, Guanfacine (R)-Valine-(R)-Valine Amide] the same measures were 73% and 66%.
Consider `N=C(NC(=O)CC[C@H](NC(=O)c1ccc(N)cc1)C(=O)O)NC(=O)Cc1c(Cl)cccc1Cl` [Compound 70, Guanfacine PABA-(S)-Glutamate (Guanfacine) Amide], for which the “% prodrug remaining following incubation for: 1 h in simulated gastric fluid pH 1.1” value in series [1] is on record as 64%. Further, in series [3], the “% prodrug remaining following incubation for: 2 h in simulated intestinal fluid pH 6.8” value is 93%.
